The record followed here is ChEMBL document CHEMBL5724914, “Linking interpersonal differences in gut microbiota composition and drug biotransformation activity” (2024).

Data set [1] in a line: The drug is tested on Z-010 corresponding to metagenome with ENA study accession number: PRJEB37062 and ENA sample accession number: ERS12561810 for biotransformation under anaerobic condition. The drug concentrations were measured over 9 timepoints collected between 0 and 24 hours of incubation by liquid-chromatography-coupled mass spectrometry (LC–MS). Conditions: 2 µM.

For data set [2] the following is noted: human gut metagenome, 24 h, 2 µM.
For data set [3] the following is noted: human gut metagenome, 24 h, 2 µM. This is another data set of the same source.
Data set [4] can be described thus: The drug is tested on Z-021 corresponding to metagenome with ENA study accession number: PRJEB37062 and ENA sample accession number: ERS12561820 for biotransformation under anaerobic condition. The drug concentrations were measured over 9 timepoints collected between 0 and 24 hours of incubation by liquid-chromatography-coupled mass spectrometry (LC–MS). Particulars: 2 µM.

The conditions of data set [5]: human gut metagenome, 24 h, 2 µM. The source holds these as a separate data set.
The conditions of data set [6]: human gut metagenome, 24 h, 2 µM. This is another data set of the same source.
For data set [7] the following is noted: human gut metagenome, 24 h, 2 µM. This is another data set of the same source.
Data set [8] can be described thus: The drug is tested on Z-018 corresponding to pig gut metagenome with ENA study accession number: PRJEB37062 and ENA sample accession number: ERS12561817 for biotransformation under anaerobic condition. The drug concentrations were measured over 9 timepoints collected between 0 and 24 hours of incubation by liquid-chromatography-coupled mass spectrometry (LC–MS). Particulars: 2 µM.

Data set [9] can be described thus: The drug is tested on Z-023 corresponding to metagenome with ENA study accession number: PRJEB37062 and ENA sample accession number: ERS12561822 for biotransformation under anaerobic condition. The drug concentrations were measured over 9 timepoints collected between 0 and 24 hours of incubation by liquid-chromatography-coupled mass spectrometry (LC–MS). Particulars: 2 µM.

Data set [10] in a line: The drug is tested on Z-024 corresponding to pig gut metagenome with ENA study accession number: PRJEB37062 and ENA sample accession number: ERS12561823 for biotransformation under anaerobic condition. The drug concentrations were measured over 9 timepoints collected between 0 and 24 hours of incubation by liquid-chromatography-coupled mass spectrometry (LC–MS). Particulars: 2 µM.

Data set [11] is described as follows: The drug is tested on WLS-038 corresponding to human gut metagenome with ENA study accession number: PRJEB37062 and ENA sample accession number: ERS12561745 for biotransformation under anaerobic condition. The drug concentrations were measured over 9 timepoints collected between 0 and 24 hours of incubation by liquid-chromatography-coupled mass spectrometry (LC–MS). Particulars: 2 µM.

Data set [12] can be described thus: The drug is tested on Z-026 corresponding to metagenome with ENA study accession number: PRJEB37062 and ENA sample accession number: ERS12561825 for biotransformation under anaerobic condition. The drug concentrations were measured over 9 timepoints collected between 0 and 24 hours of incubation by liquid-chromatography-coupled mass spectrometry (LC–MS). Particulars: 2 µM.

For data set [13] the following is noted: human gut metagenome, 24 h, 2 µM. The source holds these as a separate data set.
Data set [14] is described as follows: The drug is tested on WLS-310 corresponding to human gut metagenome with ENA study accession number: PRJEB37062 and ENA sample accession number: ERS12561785 for biotransformation under anaerobic condition. The drug concentrations were measured over 9 timepoints collected between 0 and 24 hours of incubation by liquid-chromatography-coupled mass spectrometry (LC–MS). Conditions: 2 µM.

Data set [15] can be described thus: The drug is tested on WLS-220 corresponding to human gut metagenome with ENA study accession number: PRJEB37062 and ENA sample accession number: ERS12561769 for biotransformation under anaerobic condition. The drug concentrations were measured over 9 timepoints collected between 0 and 24 hours of incubation by liquid-chromatography-coupled mass spectrometry (LC–MS). Conditions: 2 µM.

A short description of data set [16]: The drug is tested on WLS-090 corresponding to human gut metagenome with ENA study accession number: PRJEB37062 and ENA sample accession number: ERS12561753 for biotransformation under anaerobic condition. The drug concentrations were measured over 9 timepoints collected between 0 and 24 hours of incubation by liquid-chromatography-coupled mass spectrometry (LC–MS). Conditions: 2 µM.

Data set [17] in a line: The drug is tested on Z-028 corresponding to mouse gut metagenome with ENA study accession number: PRJEB37062 and ENA sample accession number: ERS12561827 for biotransformation under anaerobic condition. The drug concentrations were measured over 9 timepoints collected between 0 and 24 hours of incubation by liquid-chromatography-coupled mass spectrometry (LC–MS). Particulars: 2 µM.

For data set [18] the following is noted: human gut metagenome, 24 h, 2 µM. This is another data set of the same source.
Data set [19] in a line: The drug is tested on WLS-086 corresponding to human gut metagenome with ENA study accession number: PRJEB37062 and ENA sample accession number: ERS12561752 for biotransformation under anaerobic condition. The drug concentrations were measured over 9 timepoints collected between 0 and 24 hours of incubation by liquid-chromatography-coupled mass spectrometry (LC–MS). Conditions: 2 µM.

A short description of data set [20]: The drug is tested on Z-009 corresponding to pig gut metagenome with ENA study accession number: PRJEB37062 and ENA sample accession number: ERS12561809 for biotransformation under anaerobic condition. The drug concentrations were measured over 9 timepoints collected between 0 and 24 hours of incubation by liquid-chromatography-coupled mass spectrometry (LC–MS). Conditions: 2 µM.
Also: call rule not given here.

Take `Nc1nnc(-c2cccc(Cl)c2Cl)c(N)n1` [LAMOTRIGINE]: the “Bacterial Biotransformation” value in data set [1], in [2], in [3], in data set [4], in data set [5] and in data set [6] was “Compound NOT metabolized” each time. For the same compound, the “Bacterial Biotransformation” value in data set [7], in [8], in [9], in [10], in [11] and in [12] was “Compound NOT metabolized” in each case. Also, the “Bacterial Biotransformation” value is recorded as “Compound NOT metabolized” in data set [13]; “Compound NOT metabolized” in data set [14]; “Compound NOT metabolized” in [15]; “Compound metabolized” in data set [16]; “Compound NOT metabolized” in [17]; “Compound metabolized” in [18]. Moreover, the “Bacterial Biotransformation” value in data set [19] is “Compound metabolized”; in data set [20], “Compound NOT metabolized”.

Consider `OC(c1cc(C(F)(F)F)nc2c(C(F)(F)F)cccc12)C1CCCCN1` (stereo not given) [MEFLOQUINE], for which the “Bacterial Biotransformation” value in [1] is recorded as “Compound metabolized”; in data set [2], “Compound metabolized”; in [3], “Compound NOT metabolized”; in data set [4], “Compound metabolized”; in [5], “Compound metabolized”; in data set [6] it was “Compound metabolized”. Further, the “Bacterial Biotransformation” value is on record as “Compound NOT metabolized” in data set [7]; “Compound metabolized” in data set [8]; “Compound metabolized” in [9]; “Compound metabolized” in data set [10]; “Compound metabolized” in data set [11]; “Compound metabolized” in data set [12]. The “Bacterial Biotransformation” value in [13] is on record as “Compound metabolized”; in [14] it was “Compound metabolized”; in data set [15] it was “Compound metabolized”; in data set [16], “Compound metabolized”; in data set [17], “Compound NOT metabolized”; in data set [18], “Compound metabolized”. The “Bacterial Biotransformation” value in data set [19] and in [20] was “Compound metabolized” in each case.

Consider `CC[C@@]1(O)C(=O)OCc2c1cc1n(c2=O)Cc2cc3c(CN(C)C)c(O)ccc3nc2-1` [TOPOTECAN], for which the “Bacterial Biotransformation” value in [1], in [2], in data set [3], in data set [4], in [5] and in data set [6] was “Compound NOT metabolized” in each case. Further, the “Bacterial Biotransformation” value in data set [7], in data set [8], in data set [9], in data set [10], in data set [11] and in data set [12] was “Compound NOT metabolized” throughout. Moreover, the “Bacterial Biotransformation” value in data set [13], in data set [14], in [15], in data set [16], in data set [17] and in data set [18] was “Compound NOT metabolized” in each case. In addition, the “Bacterial Biotransformation” value in data set [19] and in data set [20] was “Compound NOT metabolized” throughout.

Consider `O=C1CN2Cc3c(ccc(Cl)c3Cl)N=C2N1` [ANAGRELIDE], for which the “Bacterial Biotransformation” value in [1] is recorded as “Compound metabolized”; in data set [2], “Compound NOT metabolized”; in data set [3], “Compound NOT metabolized”; in data set [4] it was “Compound NOT metabolized”; in data set [5], “Compound NOT metabolized”; in data set [6], “Compound NOT metabolized”. The “Bacterial Biotransformation” value is “Compound metabolized” in data set [7]; “Compound NOT metabolized” in data set [8]; “Compound metabolized” in data set [9]; “Compound metabolized” in data set [10]; “Compound metabolized” in [11]; “Compound NOT metabolized” in data set [12]. Besides, the “Bacterial Biotransformation” value is recorded as “Compound NOT metabolized” in data set [13]; “Compound metabolized” in [14]; “Compound metabolized” in data set [15]; “Compound metabolized” in data set [16]; “Compound NOT metabolized” in [17]; “Compound metabolized” in [18]. The results for the “Bacterial Biotransformation” value in data set [19] and in [20] were “Compound metabolized” and “Compound NOT metabolized”, respectively.

`CN(C)C(=O)Oc1cccc([N+](C)(C)C)c1.[Br-]` [NEOSTIGMINE BROMIDE]: the “Bacterial Biotransformation” value in data set [1], in [2], in data set [3], in [4], in data set [5] and in data set [6] was “Compound NOT metabolized” in each case. In addition, the “Bacterial Biotransformation” value in [7], in data set [8], in [9], in data set [10], in [11] and in [12] was “Compound NOT metabolized” in each case. In addition, the “Bacterial Biotransformation” value in [13], in data set [14], in data set [15], in data set [16], in data set [17] and in data set [18] was “Compound NOT metabolized” throughout. Besides, the “Bacterial Biotransformation” value in [19] and in data set [20] was “Compound NOT metabolized” in each case.
